# Source: patent US4605744A, “Imidazole derivatives” (Hoffmann-La Roche Inc., priority 1985, dated 1986)
# Where a name gives a salt, the structure may show the parent alone.
# Legend:
# Assay in all cases: In vitro antibacterial activity (MIC)
# Assay type in all cases: cell-based
# E. coli 5152 = conditions: Escherichia coli, 5152
# Method in brief: (§1)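 Inoculated with 1.5 μl per well of a 10^-2 overnight-culture dilution, Mueller-Hinton broth dilutions (128–0.008 μg/ml) are incubated overnight at 37° C. No-growth endpoint defines MIC.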
# S. marcescens S2 = conditions: Serratia marcescens; S. marcescens S2; read-out: MIC
# Method in brief: as §1
# P. aeruginosa Stone 130 = conditions: Pseudomonas aeruginosa, STONE130, read-out: MIC
# Method in brief: as §1
# S. faecalis C1 = conditions: Enterococcus faecalis; S. faecalis C1; read-out: MIC
# Method in brief: as §1
# E. aerogenes 83 = conditions: Klebsiella aerogenes, 83, E. aerogenes 83; read-out: MIC
# Method in brief: as §1
# S. aureus Giorgio = conditions: Staphylococcus aureus, S. aureus Giorgio; read-out: MIC
# Method in brief: as §1
# P. mirabilis 2 = conditions: Proteus mirabilis, 2, P. mirabilis 2; read-out: MIC
# Method in brief: as §1
# P. vulgaris 100 = conditions: Proteus vulgaris; P. vulgaris 100; read-out: MIC
# Method in brief: as §1
# E. cloacae 9570A = conditions: Enterobacter cloacae, 9570A
# Method in brief: as §1
# P. aeruginosa 5712 = conditions: Pseudomonas aeruginosa; P. aeruginosa 5712; read-out: MIC
# Method in brief: as §1
# E. aerogenes 8 = conditions: Klebsiella aerogenes; E. aerogenes 8; read-out: MIC
# Method in brief: as §1
# E. aerogenes 503-478 = conditions: Klebsiella aerogenes, 503478, E. aerogenes 503-478; read-out: MIC
# Method in brief: as §1
# S. marcescens S147 = conditions: Serratia marcescens; S. marcescens S147; read-out: MIC
# Method in brief: as §1
# E. cloacae 9295 = conditions: Enterobacter cloacae, 9295, E. cloacae 9295; read-out: MIC
# Method in brief: as §1
# E. cloacae 214 = conditions: Enterobacter cloacae, 214, E. cloacae 214; read-out: MIC
# Method in brief: as §1
# K. pneumoniae 35 = conditions: Klebsiella pneumoniae; K. pneumoniae 35; read-out: MIC
# Method in brief: as §1
# P. aeruginosa 5700 = conditions: Pseudomonas aeruginosa, 5700, P. aeruginosa 5700; read-out: MIC
# Method in brief: as §1
# E. cloacae 6951 = conditions: Enterobacter cloacae, 6951, E. cloacae 6951; read-out: MIC
# Method in brief: as §1
# P. aeruginosa POW 151 = conditions: Pseudomonas aeruginosa, POW151
# Method in brief: as §1
# S. marcescens 5805 = conditions: Serratia marcescens, 5805, S. marcescens 5805; read-out: MIC
# Method in brief: as §1
# P. aeruginosa 503-820 = conditions: Pseudomonas aeruginosa, 503820; P. aeruginosa 503-820; read-out: MIC
# Method in brief: as §1
# K. pneumoniae HE7 = conditions: Klebsiella pneumoniae; K. pneumoniae HE7; read-out: MIC
# Method in brief: as §1
# P. aeruginosa B = conditions: Pseudomonas aeruginosa, read-out: MIC
# Method in brief: as §1
# K. pneumoniae 503-994 = conditions: Klebsiella pneumoniae, 503994, K. pneumoniae 503-994; read-out: MIC
# Method in brief: as §1
# E. coli 48 = conditions: Escherichia coli, 48
# Method in brief: as §1
# S. marcescens SM = conditions: Serratia marcescens, read-out: MIC
# Method in brief: as §1
# E. coli 387-1 = conditions: Escherichia coli, 3871, E. coli 387-1; read-out: MIC
# Method in brief: as §1
# S. pyogenes 503-782 = conditions: Streptococcus pyogenes, 503782; S. pyogenes 503-782; read-out: MIC
# Method in brief: as §1
# E. coli 4 = conditions: Escherichia coli, 4, E. coli 4; read-out: MIC
# Method in brief: as §1
# E. coli 503-455 = conditions: Escherichia coli, 503455
# Method in brief: as §1
# C. diversus CDC 1663-72 = conditions: Citrobacter koseri, CDC166372; C. diversus CDC 1663-72; read-out: MIC
# Method in brief: as §1
# S. marcescens S1 = conditions: Serratia marcescens, S1, S. marcescens S1; read-out: MIC
# Method in brief: as §1
# S. schottmuelleri = conditions: read-out: MIC
# Method in brief: as §1
# P. aeruginosa 6148B = conditions: Pseudomonas aeruginosa, read-out: MIC
# Method in brief: as §1
# P. mirabilis 620A = conditions: Proteus mirabilis, 620A, P. mirabilis 620A; read-out: MIC
# Method in brief: as §1
# S. marcescens S5 = conditions: Serratia marcescens, S5, S. marcescens S5; read-out: MIC
# Method in brief: as §1
# S. aureus 1059B = conditions: Staphylococcus aureus, read-out: MIC
# Method in brief: as §1
# P. aeruginosa 8780 = conditions: Pseudomonas aeruginosa; P. aeruginosa 8780; read-out: MIC
# Method in brief: as §1
# K. pneumoniae 8357 = conditions: Klebsiella pneumoniae, 8357
# Method in brief: as §1
# K. pneumoniae 4964 = conditions: Klebsiella pneumoniae, 4964, K. pneumoniae 4964; read-out: MIC
# Method in brief: as §1
# S. marcescens S4 = conditions: Serratia marcescens, S4, S. marcescens S4; read-out: MIC
# Method in brief: as §1
# S. aureus Smith = conditions: Staphylococcus aureus, S. aureus Smith; read-out: MIC
# Method in brief: as §1
# K. pneumoniae 503-964 = conditions: Klebsiella pneumoniae, 503964; K. pneumoniae 503-964; read-out: MIC
# Method in brief: as §1
# S. marcescens S714 = conditions: Serratia marcescens, S714, S. marcescens S714; read-out: MIC
# Method in brief: as §1
# P. vulgaris 101 = conditions: Proteus vulgaris, 101, P. vulgaris 101; read-out: MIC
# Method in brief: as §1
smiles,measurement,setting,value
"CC1(C)S[C@@H]2[C@H](N=CN3CCC(CCCn4ccnc4[N+](=O)[O-])CC3)C(=O)N2[C@H]1C(=O)O [K, [2S-(2alpha,5alpha,6beta)]-6-[[[4-[3-(2-nitro-1H-imidazol-1-yl)propyl]piperidinyl]methylene]amino]-3,3-dimethyl-7-oxo-4-thia-1-azabicyclo[3.2.0]heptane-2-carboxylic acid hydrochloride 0.66 molar hydrate]",MIC,E. coli 5152,8 µg/mL
same,MIC,S. marcescens S2,2 µg/mL
same,MIC,P. aeruginosa Stone 130,> 128 µg/mL
same,MIC,S. faecalis C1,128 µg/mL
same,MIC,E. aerogenes 83,8 µg/mL
same,MIC,S. aureus Giorgio,8 µg/mL
same,MIC,P. mirabilis 2,4 µg/mL
same,MIC,P. vulgaris 100,16 µg/mL
same,MIC,E. cloacae 9570A,1 µg/mL
same,MIC,P. aeruginosa 5712,> 128 µg/mL
same,MIC,E. aerogenes 8,8 µg/mL
same,MIC,E. aerogenes 503-478,4 µg/mL
same,MIC,S. marcescens S147,2 µg/mL
same,MIC,E. cloacae 9295,1 µg/mL
same,MIC,E. cloacae 214,0.5 µg/mL
same,MIC,K. pneumoniae 35,0.5 µg/mL
same,MIC,P. aeruginosa 5700,4 µg/mL
same,MIC,E. cloacae 6951,16 µg/mL
same,MIC,P. aeruginosa POW 151,> 128 µg/mL
same,MIC,S. marcescens 5805,8 µg/mL
same,MIC,P. aeruginosa 503-820,> 128 µg/mL
same,MIC,K. pneumoniae HE7,64 µg/mL
same,MIC,P. aeruginosa B,0.25 µg/mL
same,MIC,K. pneumoniae 503-994,0.25 µg/mL
same,MIC,E. coli 48,0.25 µg/mL
same,MIC,S. marcescens SM,2 µg/mL
same,MIC,E. coli 387-1,0.5 µg/mL
same,MIC,S. pyogenes 503-782,128 µg/mL
same,MIC,E. coli 4,0.5 µg/mL
same,MIC,E. coli 503-455,4 µg/mL
same,MIC,C. diversus CDC 1663-72,0.25 µg/mL
same,MIC,S. marcescens S1,2 µg/mL
same,MIC,S. schottmuelleri,0.5 µg/mL
same,MIC,P. aeruginosa 6148B,> 128 µg/mL
same,MIC,P. mirabilis 620A,16 µg/mL
same,MIC,S. marcescens S5,8 µg/mL
same,MIC,S. aureus 1059B,128 µg/mL
same,MIC,P. aeruginosa 8780,> 128 µg/mL
same,MIC,K. pneumoniae 8357,2 µg/mL
same,MIC,K. pneumoniae 4964,0.5 µg/mL
same,MIC,S. marcescens S4,8 µg/mL
same,MIC,S. aureus Smith,8 µg/mL
same,MIC,K. pneumoniae 503-964,0.5 µg/mL
same,MIC,S. marcescens S714,8 µg/mL
same,MIC,P. vulgaris 101,16 µg/mL
